Assay results reported in patent US20160074553A1, “DRESSING FOR COMPROMISED WOUND HEALING” (CONSEJO SUPERIOR DE INVESTIGACIONES CIENTIFICAS (CSIC), priority 2012, published 2016).

Tests used:
[1] = Thermogravimetric analysis (TGA) of polymers and nanoparticle systems; format: physicochemical
Protocol: The thermogravimetric analysis (TGA) was carried out under N2 atmosphere in TGA Q500 (TA) equipment between 25 and 600° C. with a heating rate of 10° C./min.
The products were characterized by ATR-FTIR (4000 to 600 cm−1), TGA (25 to 600° C. under nitrogen atmosphere at 10° C./min) and DSC (the scan was carried out at a constant rate of 10° C./min, with a N2 flow of 20 ml/min, with temperatures in the range of −20 to 180° C.) to determine the glass transition temperature of the NP. For the calculation of the Tg, the temperature at which half of the difference in specific heat between the vitreous amorphous and elastomer amorphous states is reached is taken, that is, Tg=½ ΔCp. This point corresponds to the inflection point of the change in slope in the thermogram of the second scan.

BaF32 cells = test: BaF32 proliferation assay; format: cell-based
Protocol: The measurements of biological activity of the free and encapsulated bemiparin were carried out by cell proliferation assay. For this, BaF32 cells were used, which are a type of lymphocyte B, the cell signalling of which is mediated by the formation of a complex between the bemiparin, the FGF-2 and its corresponding FGFR1c receptor on the cell surface.
Bemiparin forms a ternary complex (FIG. 27) with the fibroblast growth factor (FGF-2) and its corresponding specific membrane receptor (FGFR1c) thus increasing the cellular signalling process corresponding to the proliferation process (Dillen, K., J. Vandervoort, G. Van den Mooter, and A. Ludwig. 2006. Evaluation of ciprofloxacin-loaded Eudragit® RS100 or RL100/PLGA nanoparticles. International Journal of Pharmaceutics 314 (1): 72-82; Eto, T. 2001. A review of the biological properties and clinical implications of adrenomedullin and proadrenomedullin N-terminal 20 peptide (PAMP), hypotensive and vasodilating peptides. Peptides 22 (11): 1693-1711). Given this property, an experiment was designed to verify that the encapsulated bemiparin maintains its biological activity. For this BaF32 cells were used, which are a type of lymphocyte B, the cell signalling of which is modulated by a by a specific bond between the FGF-2 and its corresponding FGFR1c receptor on the cell surface.

[2] = donated by ROVI pharmaceutical laboratories; cited from earlier work

T10% (temperature at which 10% of the system has been degraded) [1]: 120 °C
Substance: bemiparin
effect on cell proliferation / activity of the FGF-2 (BaF32 cells; FGF-2, FGFR1c): promoting cell proliferation
dependence of the cellular response on the concentration of bemiparin (BaF32 cells; different concentrations of bemiparin): independent from the concentration of bemiparin used
activity of bemiparin as supplied [2]: 111.3 IU/mg
